# Measurements from US20130338383A1, “PREGNANOLONE DERIVATIVES SUBSTITUTED IN 3ALPHA-POSITION WITH THE CATIONIC GROUP, METHOD OF THEIR PRODUCTION, USAGE AND PHARMACEUTICAL PREPARATION INVOLVING THEM” (FYZIOLOGICKY USTAV AKADEMIE VED CESKE REPUBLICKY, V.V.I., priority 2011, published 2013).
# Where two headings read alike, the source gives them in different places.
# Experiments:
# NR1/NR2B NMDA receptors [1] = target: T1, NR1/NR2B NMDA receptors (Rattus norvegicus, UniProt P35439+Q00960); assay: Patch-clamp inhibition of glutamate-elicited currents in HEK293 cells transfected with NR1-1a/NR2B; assay type: cell-based; settings: for IC50: calculated from relative inhibition with Hill's coefficient 1.2; for IC50 / Relative inhibition effect (%): 5 cells; for Relative inhibition effect (%): 1 mmol·l^−1 glutamic acid
# T1 construct: expressed in transfected cells; host or cells: HEK293 cells (ATCC CRL1573)
# T1 sequence (Q00960 27-1482, other chains not shown): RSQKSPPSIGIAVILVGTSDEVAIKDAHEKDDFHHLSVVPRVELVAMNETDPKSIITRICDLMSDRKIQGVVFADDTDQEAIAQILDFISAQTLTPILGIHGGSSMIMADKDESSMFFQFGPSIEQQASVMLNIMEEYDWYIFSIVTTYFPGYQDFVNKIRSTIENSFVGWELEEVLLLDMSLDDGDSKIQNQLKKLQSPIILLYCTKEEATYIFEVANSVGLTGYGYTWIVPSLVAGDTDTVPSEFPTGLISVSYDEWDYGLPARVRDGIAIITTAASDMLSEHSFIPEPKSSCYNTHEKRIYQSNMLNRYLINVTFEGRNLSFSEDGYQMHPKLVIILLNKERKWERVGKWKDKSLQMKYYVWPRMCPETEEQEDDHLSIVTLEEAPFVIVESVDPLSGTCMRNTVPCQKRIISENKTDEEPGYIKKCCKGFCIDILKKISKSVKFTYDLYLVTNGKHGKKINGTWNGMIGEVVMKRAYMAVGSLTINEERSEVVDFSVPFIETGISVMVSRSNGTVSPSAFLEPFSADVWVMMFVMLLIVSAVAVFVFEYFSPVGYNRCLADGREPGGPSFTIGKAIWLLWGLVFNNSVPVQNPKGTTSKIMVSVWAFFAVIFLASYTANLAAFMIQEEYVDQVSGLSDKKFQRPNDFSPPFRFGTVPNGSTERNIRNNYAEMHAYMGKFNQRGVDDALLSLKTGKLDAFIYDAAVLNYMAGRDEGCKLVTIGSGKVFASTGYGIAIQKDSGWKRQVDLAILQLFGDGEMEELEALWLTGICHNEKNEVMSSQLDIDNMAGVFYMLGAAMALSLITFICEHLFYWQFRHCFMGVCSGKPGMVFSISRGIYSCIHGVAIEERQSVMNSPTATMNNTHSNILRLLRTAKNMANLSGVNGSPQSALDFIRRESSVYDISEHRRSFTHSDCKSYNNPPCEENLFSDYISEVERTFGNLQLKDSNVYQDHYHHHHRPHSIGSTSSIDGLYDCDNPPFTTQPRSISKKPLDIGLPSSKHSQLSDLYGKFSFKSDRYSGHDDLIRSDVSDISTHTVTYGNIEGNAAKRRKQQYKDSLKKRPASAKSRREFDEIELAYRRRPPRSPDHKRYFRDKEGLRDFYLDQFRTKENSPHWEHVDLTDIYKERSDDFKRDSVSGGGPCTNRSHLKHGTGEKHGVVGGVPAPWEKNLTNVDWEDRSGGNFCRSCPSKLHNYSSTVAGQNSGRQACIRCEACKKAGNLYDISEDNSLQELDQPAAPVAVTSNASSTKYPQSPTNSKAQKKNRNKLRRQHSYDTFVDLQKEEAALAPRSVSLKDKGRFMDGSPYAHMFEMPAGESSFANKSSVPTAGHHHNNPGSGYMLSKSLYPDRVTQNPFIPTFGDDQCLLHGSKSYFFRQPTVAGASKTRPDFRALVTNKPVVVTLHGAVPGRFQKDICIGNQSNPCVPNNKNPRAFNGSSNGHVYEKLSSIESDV
# Procedure: The membrane potentials were maintained at −60 mV or +60 mV. Patch-clamp technique was used to record the currents from cultivated HEK293 cells with transfected NR1/NR2B NMDA receptors. Relative inhibition elicited by the compound from the example 2 was calculated from the formula (1−a/b)*100(%).
# Degree of activated NMDA receptor inhibition by steroid cationic compounds was measured in vitro electrophysiologically on cultivated HEK293 cells (Human Embryonic Kidney 293 cells) 24-48 h after the transfection with DNA plasmids, coding NR1-1a and NR2B subunit of NMDA receptor. Transfected cells were identified by means of fluorescent green protein (GFP) fluorescence. Its genus was transfected together with the both receptor subunit genes.
# Steroid-containing solutions were prepared from fresh solution (20 mmol·l^−1, of steroid dissolved in dimethyl-sulfoxide, DMSO), which was added to the extracellular solution containing 1 mmol·l^−1 glutamic acid and 10 μmol·l^−1 of glycine. Same concentrations of DMSO were added to all other extracellular solutions.
# Current responses produced by extracellular application of glutamic acid solution (1 mmol·l^−1) were measured from the whole cell by patch-clamp technique, which is used for the study of transport of charged particles through model and also natural biological membranes. The currents were measured at membrane potential maintained at −60 mV and +60 mV.
# HEK293 cells (American Type Culture Collection, ATTC No. CRL1573, Rockville, Md.) were cultivated in Opti-MEM® I media (Invitrogen) with addition of 5% fetal bovine serum at 37° C. and transfected with NR1-1a/NR2B/GFP plasmids, as described in the scientific literature (Cais et al., 2008). Same amounts (0.3 μg) of cDNA coding NR1, NR2 and GFP (green fluorescent protein) (pQBI 25, Takara, Japan) were mixed with 0.9 μl of Matra-A Reagent (IBA, Göttingen, Germany) and added to confluent HEK293 cells cultivated in v 24-pit cultivating plate. After trypsination, the cells were re-suspended in Opti-MEM® I containing 1% fetal bovine serum. Subsequently, 20 mmol·l^−1 MgCl2, 1 mmol D,L-2-amino-5-phosphonopentanoic acid, 3 mmol·l^−1 kynurenic acid was added to the mixture and cells were inoculated on the polylysine-coated glass plates having 25 mm in diameter. The following genes coding NMDA receptor subunits were used for transfection: NR1-1a (GenBank accession no. U08261) and NR2B (GenBank accession no. M91562).
# HEK293 Cultured cells were used for electrophysiological investigations with a latency of 16-40 h after transfection. Whole-cell currents were measured by patch-clamp amplifier (Axopatch 1D; Axon Instruments, Inc. Foster City, USA) after capacitance and serial resistance (<10 MΩ) compensation to 80-90%. Agonist-induced responses were filtered to 1 kHz (8-pole Bessel filter; Frequency Devices, Haverhill, USA), digitized with sampling frequency of 5 kHz and analyzed by pClamp version 9 software (Axon Instruments, USA). Micropipettes made of borosilicate glass were filled with intracellular solution, containing 125 mmol·l^−1 D-glukonic acid, 15 mmol·l^−1 cesium chloride, 5 mmol·l^−1 EGTA, 10 mmol·l^−1 HEPES buffer, 3 mmol·l^−1 magnesium chloride, 0.5 mmol·l^−1 calcium chloride and 2 mmol·l^−1 magnesium-salt of ATP (pH adjusted to 7.2 by cesium hydroxide solution). Extracellular solution (ECS) contained 160 mmol·l^−1 sodium chloride, 2.5 mmol·l^−1 potassium chloride, 10 mmol·l^−1 HEPES, 10 mmol·l^−1 glucose, 0.2 mmol·l^−1 EDTA a 0.7 mmol·l^−1 calcium chloride (pH adjusted to 7.3 by sodium hydroxide solution). Glycine was added to both testing and control solution.
# [2] = system: NMDA receptors on hipocampal neurones; settings: pregnanolone sulfate 100 μmol·l^−1; responses elicited by NMDA; −60 mV; n=5; Petrovic et al., 2005; cited from earlier work
# NR1/NR2B NMDA receptors [3] = target: T1, NR1/NR2B NMDA receptors; settings: pregnanolone sulfate 100 μmol·l^−1, recombinant NR1/NR2B receptors, n=5, Petrovic et al., 2005, cited from earlier work
# Long-Evans male rats = assay: Carousel maze (active allothetic place avoidance, AAPA): locomotion and cognitive function; assay type: in vivo
# Procedure: Effect of pregnanolone argininate and nitrate and action of dizocilpine (a non-competitive antagonist of NMDA receptors; standardly used as positive control and referred hereafter as dizocilpine) on the behavior of rats in Carousel maze (active allothetic place avoidance (AAPA)), a spatial task requiring spatial orientation and cognitive functions
# The effect of compounds on cognitive behaviors and locomotion was assessed using Carousel maze (active allothetic place avoidance (AAPA) task), which requires intact hippocampi and ability of animals to navigate in space using distinct reference frames (spatial navigation and “cognitive coordination”) (Wesierska et al., 2005) and it also allows measuring changes in the accompanying locomotor activity. AAPA task training involves animals trained to move over a slowly rotating uniform circular arena, on which a prohibited sector is defined, entering which is punished by a mild footshock. A shock sector and its position can be determined solely by its relationship to distal orienting cues in the room (Stuchlik et al., 2008).
# This task is highly dependent upon hippocampal formation, with unilateral reversible ablation of this structure with TTX leading to avoidance deficit (Cimadevilla et al., 2001). Animals solving this task should walk in a direction opposite to arena rotation; otherwise it would be repeatedly brought to a fixed sector by arena rotation. We conducted 4 acquisition session of AAPA task, during which the sector location was always reinforced and remained stable throughout the training. Each session lasted 20 min.
# The effect was tested on 2-month-old Long-Evans male rats. Control animals obtained cyklodextrine (s.c.), experimental groups received subcutaneous (s.c.) injections of the compound from example 2 at doses 1 mg/kg (dissolved in cyclodextrin). Intraperitonal application of dizocilpine (a non-competitive NMDA receptor antagonist; showing significant neuroprotective activity but exerting cognition-disturbing and psychotomimetic effects) was used as a positive control. Dizocilpine was applied at doses 0.15 mg/kg. It is worth noting that dizocilpine (albeit its experimental neuroprotective activity) is often used to model schizophrenia-like behaviors in […] and it has been repeatedly shown to exert a dose-dependent learning deficit and hyperlocomotion.
# Locomotor activity of animals was assessed in the AAPA as total distance traveled in the coordinate frame of the arena (without passive rotation) in each 20-min session.
# Another parameter, which can be measured and which brings a spatial aspect to behavioral analysis, is number of entrances into prohibited sector (occasionally termed “number of errors”).
# male mice strain B6 = assay: Anesthetic effect after i.p. injection; assay type: in vivo; settings: 100 mg/kg i.p. in β-cyclodextrine
# Procedure: Anesthetic effect of 3α5β pregnanolon argininate was tested on 2-month-old male mice strain B6. Animals were randomly assigned to 3 groups per 7 animals each. The first group was injected i.p. with saline, the second group received i.p. cyclodextrine, the third group obtained received the pregnanolon argininate at a dose 100 mg/kg (dissolved in β-cyclodextrine).
# mice strain B6 = assay: Spontaneous locomotor activity in the open-field test; assay type: in vivo; settings: 10 mg/kg subcutaneously in cyclodextrin, 60 min session
# Procedure: Animals were tracked with iTrack (Biosignal group, USA) and total path during this session was evaluated. The pregnanolone argininate was applied subcutaneously (dissolved in cyclodextrin) prior to behavioral observations at doses 10 mg/kg; control animals were injected with saline and cyclodextrin.
# [4] = dizocilpine 0.15 mg/kg intraperitoneal, positive control
molecule,measurement,setting,value
"CC(=O)C1CCC2C3CC[C@@H]4C[C@H]([N+](C)(C)C)CC[C@]4(C)C3CC[C@]12C.[Cl-] (stereo partly drawn) [Example 10, 3-(Trimethylammonium)-5β-pregnan-20-one chloride]",melting point,,237 to 240 °C (dec.)
same,IC50,NR1/NR2B NMDA receptors [1],107 µM
same,Relative inhibition effect (%),"NR1/NR2B NMDA receptors [1]; steroid 100 μmol·l^−1, −60 mV",69.2 ± 9.6%
"CC(=O)[C@H]1CC[C@H]2[C@@H]3CC[C@@H]4C[C@H](OC(=O)CCC[N+](C)(C)C)CC[C@]4(C)[C@H]3CC[C@]12C.[Cl-] [Example 6, 20-Oxo-5β-pregnan-3α-yl 4-(trimethylammonium) butanoate chloride]",IC50,NR1/NR2B NMDA receptors [1],5.9 µM
same,Relative inhibition effect (%),NR1/NR2B NMDA receptors [1]; steroid 10 μmol·l^−1,65.4 ± 3.4%
"CCC(CCC(=O)O[C@@H]1CC[C@@]2(C)[C@H](CC[C@@H]3[C@@H]2CC[C@]2(C)[C@@H](C(C)=O)CC[C@@H]32)C1)[N+](C)(C)C.[Cl-] (stereo partly drawn) [Example 7, 20-Oxo-5β-pregnan-3α-yl 4-(trimethylammonium) hexanoate chloride]",IC50,NR1/NR2B NMDA receptors [1],23.6 µM
same,Relative inhibition effect (%),"NR1/NR2B NMDA receptors [1]; steroid 100 μmol·l^−1, −60 mV",85.6 +/− 2.3%
"CC(=O)[C@H]1CC[C@H]2[C@@H]3CC[C@@H]4C[C@H](OC(=O)C[N+](C)(C)C)CC[C@]4(C)[C@H]3CC[C@]12C.[Cl-] [Example 8, 20-Oxo-5β-pregnan-3α-yl-2-(trimethylammonium) acetate hydrochloride]",IC50,NR1/NR2B NMDA receptors [1],22.4 µM
same,Relative inhibition effect (%),"NR1/NR2B NMDA receptors [1]; steroid 30 μmol·l^−1, −60 mV",57.0 ± 9.6%
5β-pregnanolon-3α-yl-sulfate [Pregnanolone sulfate],mean inhibition effect,[2],71.3±5.0%
same,Relative inhibition effect (%),NR1/NR2B NMDA receptors [3]; listed as 5β-pregnanolon-3α-yl-sulfate,67%
same,Relative inhibition effect (%),NR1/NR2B NMDA receptors [3]; listed as pregnanolone sulfate,67.2±8.2%
same,IC50,NR1/NR2B NMDA receptors [1],55 µM
"CC(=O)[C@H]1CC[C@H]2[C@@H]3CC[C@@H]4C[C@H](OC(=O)CN(C)C(=N)N)CC[C@]4(C)[C@H]3CC[C@]12C.Cl [Example 5, 20-Oxo-5β-pregnan-3α-yl 2-(methylguanidino) acetate hydrochloride]",IC50,NR1/NR2B NMDA receptors [1],3.3 ± 0.7 µM
same,Relative inhibition effect (%),NR1/NR2B NMDA receptors [1]; steroid 10 μmol·l^−1,79.2 ± 4.2%
"CC(=O)O.CC(=O)O.CC(=O)[C@H]1CC[C@H]2[C@@H]3CC[C@@H]4C[C@H](OC(=O)[C@@H](N)CCCNC(=N)N)CC[C@]4(C)[C@H]3CC[C@]12C [Example 2, 20-Oxo-5β-pregnan-3α-yl L-argininate diacetate salt]",locomotor activity: total distance per session in AAPA,"Long-Evans male rats; compound from example 2 1 mg/kg s.c. in cyclodextrin (nitrate dose not given), 20-min session, vs cyclodextrin controls, diacetate salt, 1 mg/kg",no significant effect
same,locomotor activity: total distance per session in AAPA,"Long-Evans male rats; compound from example 2 1 mg/kg s.c. in cyclodextrin (nitrate dose not given), 20-min session, vs cyclodextrin controls, listed as pregnanolone argininate, diacetate salt, 1 mg/kg",failed to exhibit either decrease or increase
same,number of entrances into shock sector (spatial cognition),"Long-Evans male rats; compound from example 2 1 mg/kg s.c. in cyclodextrin (nitrate dose not given), vs cyclodextrin controls, diacetate salt, 1 mg/kg",no significant effect
same,number of entrances into shock sector (spatial cognition),"Long-Evans male rats; compound from example 2 1 mg/kg s.c. in cyclodextrin (nitrate dose not given), vs cyclodextrin controls, listed as pregnanolone argininate, diacetate salt, 1 mg/kg",do not caused worsening
same,time after injection to anesthesia,male mice strain B6,5 to 20 min
same,time after injection to decreased locomotor activity,male mice strain B6,3 to 15 min
same,time to spontaneous awakening,male mice strain B6,1 to 3 h
same,dependence of average inhibition on the maintained membrane potential,"NR1/NR2B NMDA receptors [1]; 10 μmol·l^−1, FIG. 1B",independence
same,reversibility of inhibition of the current response,"NR1/NR2B NMDA receptors [1]; 10 μmol·l^−1 applied simultaneously with 1 mmol·l^−1 glutamic acid, −60 mV or +60 mV, FIG. 1A",reversible inhibition
same,IC50,NR1/NR2B NMDA receptors [1],5.3 µM
same,Relative inhibition effect (%),NR1/NR2B NMDA receptors [1]; steroid 10 μmol·l^−1,69.2 ± 9.6%
same,spontaneous locomotor activity (total path),mice strain B6,did not significantly alter
"C[C@]12N[C@H](Cc3ccccc31)c1ccccc12 [dizocilpine, reference compound]",locomotor activity: total distance per session in AAPA,Long-Evans male rats; [4],stimulated the locomotor activity
same,number of entrances into shock sector (spatial cognition),Long-Evans male rats; [4],dose-dependently disrupted
same,number of entrances into shock sector (spatial cognition),"Long-Evans male rats; dizocilpine 0.15 mg/kg intraperitoneal, positive control, listed as MK-801",disrupts
